Laboratory results as given in patent US11718622B2, “Heterocyclic adenosine receptor antagonists” (Exelixis, Inc., priority 2020, dated 2023).

Key:
[1] = biological target: Adenosine A2a (ADORA2A) receptor (Homo sapiens (Human), UniProt P29274); assay: ADORA2A Receptor Binding Assay; conditions: radioligand binding, membrane stock
How it was run: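 Test compounds incubated with A2a receptor membranes and a ³H-labelled radioligand for 2 hours at room temperature, then filtered through PEI-presoaked GF/C plates and washed. Filter-bound ³H counted by scintillation; % inhibition calculated from background-subtracted signal relative to high control.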

[2] = biological target: Adenosine A2B (ADORA2B) receptor (Homo sapiens (Human), UniProt P29275); assay: ADORA2B Receptor Binding Assay; conditions: radioligand binding, membrane stock
How it was run: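 Radioligand competition binding on human A2B receptor membranes, 1 h at room temperature, then filtration through BSA-presoaked GF/C filters and ³H counting by scintillation. Inhibition expressed as % of high control after background subtraction.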

Adenosine A2a (ADORA2A) receptor, sequence (P29274 whole entry): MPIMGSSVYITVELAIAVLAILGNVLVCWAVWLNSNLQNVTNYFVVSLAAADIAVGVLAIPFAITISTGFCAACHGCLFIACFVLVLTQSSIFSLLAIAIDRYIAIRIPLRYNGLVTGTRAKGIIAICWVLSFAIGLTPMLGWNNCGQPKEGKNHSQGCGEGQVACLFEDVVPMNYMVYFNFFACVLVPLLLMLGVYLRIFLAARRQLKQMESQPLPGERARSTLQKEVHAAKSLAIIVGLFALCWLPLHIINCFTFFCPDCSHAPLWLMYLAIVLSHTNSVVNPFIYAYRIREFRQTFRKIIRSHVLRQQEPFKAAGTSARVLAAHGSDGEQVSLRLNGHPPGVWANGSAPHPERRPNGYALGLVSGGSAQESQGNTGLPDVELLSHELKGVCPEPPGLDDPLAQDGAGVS
Adenosine A2B (ADORA2B) receptor, sequence (P29275 whole entry): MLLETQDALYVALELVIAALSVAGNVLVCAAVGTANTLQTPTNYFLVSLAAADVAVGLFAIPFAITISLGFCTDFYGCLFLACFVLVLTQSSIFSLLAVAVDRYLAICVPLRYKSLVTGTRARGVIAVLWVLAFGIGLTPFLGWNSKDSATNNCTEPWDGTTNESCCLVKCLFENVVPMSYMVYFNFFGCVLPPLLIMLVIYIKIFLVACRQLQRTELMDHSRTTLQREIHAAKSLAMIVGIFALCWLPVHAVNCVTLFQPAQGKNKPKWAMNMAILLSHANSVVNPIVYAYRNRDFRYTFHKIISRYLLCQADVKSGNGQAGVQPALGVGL

## Cc1cn2cc(N)nc(-c3ccc(C)o3)c2n1 [Compound 200, 2-methyl-8-(5-methylfuran-2-yl)imidazo[1,2-a]pyrazin-6-amine]
[1]
  IC50: 100 to 1000 nM
[2]
  IC50: 100 to 1000 nM

## Cc1ccc(-c2nc(NC(=O)C3CC3)cn3ncnc23)o1 [Compound 167, N-[8-(5-methylfuran-2-yl)-[1,2,4]triazolo[1,5-a]pyrazin-6-yl]cyclopropanecarboxamide]
[1]
  IC50: < 10 nM
[2]
  IC50: < 10 nM

## O=C(Nc1cc2nc(C3CNC3)nn2c(-c2ccco2)n1)C1CC1 [Compound 123, N-[2-(azetidin-3-yl)-5-(furan-2-yl)-[1,2,4]triazolo[1,5-c]pyrimidin-7-yl]cyclopropanecarboxamide]
[1]
  IC50: 10 to 100 nM
[2]
  IC50: > 1000 nM

## Nc1nc(-c2ccccc2)c2nc(C(F)(F)F)cn2c1Cl [Compound 204, 5-chloro-8-phenyl-2-(trifluoromethyl)imidazo[1,2-a]pyrazin-6-amine]
[1]
  IC50: 10 to 100 nM
[2]
  IC50: 10 to 100 nM

## CC(=O)Nc1cc2nc(C(C)C)nn2c(-c2ccco2)n1 [Compound 48, N-[5-(furan-2-yl)-2-propan-2-yl-[1,2,4]triazolo[1,5-c]pyrimidin-7-yl]acetamide]
[1]
  IC50: < 10 nM
[2]
  IC50: < 10 nM

## Cc1cc2c(nc(-c3ccc(C)o3)n3nc(C(C)C)nc23)[nH]1 [Compound 75, 11-methyl-7-(5-methylfuran-2-yl)-4-propan-2-yl-3,5,6,8,10-pentazatricyclo[7.3.0.0^2,6]dodeca-1(9),2,4,7,11-pentaene]
[1]
  IC50: < 10 nM
[2]
  IC50: 10 to 100 nM

## CC(=O)c1cccc(-c2nc(N)cc3nc(C)nn23)c1 [Compound 95, 1-[3-(7-amino-2-methyl-[1,2,4]triazolo[1,5-c]pyrimidin-5-yl)phenyl]ethanone]
[1]
  IC50: > 1000 nM
[2]
  IC50: > 1000 nM

## CCOC(=O)Nc1cn2cc(C)nc2c(-c2ccco2)n1 [Compound 219, ethyl N-[8-(furan-2-yl)-2-methylimidazo[1,2-a]pyrazin-6-yl]carbamate]
[1]
  IC50: 10 to 100 nM
[2]
  IC50: 100 to 1000 nM

## CC(=O)c1cccc(-c2nc(NC(=O)C3CC3)cc3nc(C)nn23)c1 [Compound 96, N-[5-(3-acetylphenyl)-2-methyl-[1,2,4]triazolo[1,5-c]pyrimidin-7-yl]cyclopropanecarboxamide]
[1]
  IC50: 100 to 1000 nM
[2]
  IC50: 100 to 1000 nM

## Cc1ccc(-c2nc(N)cc3nc(C(C)C)nn23)o1 [Compound 13, 5-(5-methylfuran-2-yl)-2-propan-2-yl-[1,2,4]triazolo[1,5-c]pyrimidin-7-amine]
[1]
  IC50: < 10 nM
[2]
  IC50: 100 to 1000 nM

## Cc1cccc(-c2nc(N)c(Cl)n3cc(C)nc23)c1 [Compound 207, 5-chloro-2-methyl-8-(3-methylphenyl)imidazo[1,2-a]pyrazin-6-amine]
[1]
  IC50: 100 to 1000 nM
[2]
  IC50: 100 to 1000 nM

## Cc1ccc(-c2nc(NC(=O)C3CC3)cn3nc(Br)nc23)o1 [Compound 188, N-[2-bromo-8-(5-methylfuran-2-yl)-[1,2,4]triazolo[1,5-a]pyrazin-6-yl]cyclopropanecarboxamide]
[1]
  IC50: < 10 nM
[2]
  IC50: < 10 nM

## O=C(Nc1cc2nc(C(F)F)nn2c(-c2ccco2)n1)C1CC1 [Compound 148, N-[2-(difluoromethyl)-5-(furan-2-yl)-[1,2,4]triazolo[1,5-c]pyrimidin-7-yl]cyclopropanecarboxamide]
[1]
  IC50: < 10 nM
[2]
  IC50: < 10 nM

## CC(=O)Nc1cc2nc(C(F)(F)F)nn2c(-c2ccc(C)o2)n1 [Compound 41, N-[5-(5-methylfuran-2-yl)-2-(trifluoromethyl)-[1,2,4]triazolo[1,5-c]pyrimidin-7-yl]acetamide]
[1]
  IC50: < 10 nM
[2]
  IC50: < 10 nM

## Cc1nc2c3cccnc3nc(-c3ccco3)n2n1 [Compound 137, 7-(furan-2-yl)-4-methyl-3,5,6,8,10-pentazatricyclo[7.4.0.0^2,6]trideca-1(9),2,4,7,10,12-hexaene]
[1]
  IC50: > 1000 nM
[2]
  IC50: > 1000 nM

## Cc1nc2cc(NC(=O)C3CC3)nc(-c3ccc(F)c(F)c3)n2n1 [Compound 128, N-[5-(3,4-difluorophenyl)-2-methyl-[1,2,4]triazolo[1,5-c]pyrimidin-7-yl]cyclopropanecarboxamide]
[1]
  IC50: 10 to 100 nM
[2]
  IC50: 100 to 1000 nM

## Cc1nc2c(Cl)c(N)nc(-c3ccncc3)n2n1 [Compound 79, 8-chloro-2-methyl-5-pyridin-4-yl-[1,2,4]triazolo[1,5-c]pyrimidin-7-amine]
[1]
  IC50: 10 to 100 nM
[2]
  IC50: 100 to 1000 nM

## Cc1ccc(-c2nc(N)c(Cl)n3cc(C)nc23)cc1 [Compound 214, 5-chloro-2-methyl-8-(4-methylphenyl)imidazo[1,2-a]pyrazin-6-amine]
[1]
  IC50: 100 to 1000 nM
[2]
  IC50: 100 to 1000 nM

## Cc1nc2cc(NC(=O)C3CC3)nc(-c3ccco3)n2n1 [Compound 29, N-[5-(furan-2-yl)-2-methyl-[1,2,4]triazolo[1,5-c]pyrimidin-7-yl]cyclopropanecarboxamide]
[1]
  IC50: < 10 nM
[2]
  IC50: < 10 nM

## Cc1ccc(-c2nc(NC(=O)C3CC3)cn3nc(CF)nc23)o1 [Compound 190, N-[2-(fluoromethyl)-8-(5-methylfuran-2-yl)-[1,2,4]triazolo[1,5-a]pyrazin-6-yl]cyclopropanecarboxamide]
[1]
  IC50: < 10 nM
[2]
  IC50: < 10 nM

## Cc1cn2c(Br)c(N)nc(-c3ccccc3)c2n1 [Compound 203, 5-bromo-2-methyl-8-phenylimidazo[1,2-a]pyrazin-6-amine]
[1]
  IC50: 100 to 1000 nM
[2]
  IC50: 100 to 1000 nM

## CC(=O)Nc1cc2nc(C3CN(C)C3)nn2c(-c2ccco2)n1 [Compound 151, N-[5-(furan-2-yl)-2-(1-methylazetidin-3-yl)-[1,2,4]triazolo[1,5-c]pyrimidin-7-yl]acetamide]
[1]
  IC50: 10 to 100 nM
[2]
  IC50: > 1000 nM

## COc1ccc(-c2nc(NC(=O)C3CC3)cc3nc(C)nn23)cc1 [Compound 111, N-[5-(4-methoxyphenyl)-2-methyl-[1,2,4]triazolo[1,5-c]pyrimidin-7-yl]cyclopropanecarboxamide]
[1]
  IC50: 10 to 100 nM
[2]
  IC50: 10 to 100 nM

## CCc1nc2cc(N)nc(-c3ccc(C)o3)n2n1 [Compound 7, 2-ethyl-5-(5-methylfuran-2-yl)-[1,2,4]triazolo[1,5-c]pyrimidin-7-amine]
[1]
  IC50: < 10 nM
[2]
  IC50: 100 to 1000 nM

## Cc1nc2cc(NC(=O)C3CC3)nc(-c3ccc(F)o3)n2n1 [Compound 85, N-[5-(5-fluorofuran-2-yl)-2-methyl-[1,2,4]triazolo[1,5-c]pyrimidin-7-yl]cyclopropanecarboxamide]
[1]
  IC50: < 10 nM
[2]
  IC50: < 10 nM

## Cc1nc2cc(NC(=O)C3CC3)nc(-c3cccc(F)c3)n2n1 [Compound 131, N-[5-(3-fluorophenyl)-2-methyl-[1,2,4]triazolo[1,5-c]pyrimidin-7-yl]cyclopropanecarboxamide]
[1]
  IC50: < 10 nM
[2]
  IC50: 10 to 100 nM

## CC(C)c1nc2c(Cl)c(N)nc(-c3ccccc3)n2n1 [Compound 86, 8-chloro-5-phenyl-2-propan-2-yl-[1,2,4]triazolo[1,5-c]pyrimidin-7-amine]
[1]
  IC50: < 10 nM
[2]
  IC50: 10 to 100 nM

## CC(=O)Nc1cc2nc(C3CNC3)nn2c(-c2ccc(C)o2)n1 [Compound 150, N-[2-(azetidin-3-yl)-5-(5-methylfuran-2-yl)-[1,2,4]triazolo[1,5-c]pyrimidin-7-yl]acetamide]
[1]
  IC50: 100 to 1000 nM
[2]
  IC50: > 1000 nM

## CN1CC(c2nc3cc(NC(=O)C4CC4)nc(-c4ccco4)n3n2)C1 [Compound 135, N-[5-(furan-2-yl)-2-(1-methylazetidin-3-yl)-[1,2,4]triazolo[1,5-c]pyrimidin-7-yl]cyclopropanecarboxamide]
[1]
  IC50: < 10 nM
[2]
  IC50: > 1000 nM

## COc1ccc(-c2nc(NC(C)=O)cc3nc(C)nn23)cc1 [Compound 113, N-[5-(4-methoxyphenyl)-2-methyl-[1,2,4]triazolo[1,5-c]pyrimidin-7-yl]acetamide]
[1]
  IC50: 100 to 1000 nM
[2]
  IC50: 100 to 1000 nM

## Cc1nc2cc(NC(=O)C3CC3)nc(-c3ccc(Br)o3)n2n1 [Compound 52, N-[5-(5-bromofuran-2-yl)-2-methyl-[1,2,4]triazolo[1,5-c]pyrimidin-7-yl]cyclopropanecarboxamide]
[1]
  IC50: < 10 nM
[2]
  IC50: < 10 nM

## Cc1nc2c3cn[nH]c3nc(-c3ccc(C)o3)n2n1 [Compound 102, 4-methyl-7-(5-methylfuran-2-yl)-3,5,6,8,10,11-hexazatricyclo[7.3.0.0^2,6]dodeca-1(9),2,4,7,11-pentaene]
[1]
  IC50: 10 to 100 nM
[2]
  IC50: 10 to 100 nM

## CC(=O)Nc1cc2nc(C3COC3)nn2c(-c2ccco2)n1 [Compound 91, N-[5-(furan-2-yl)-2-(oxetan-3-yl)-[1,2,4]triazolo[1,5-c]pyrimidin-7-yl]acetamide]
[1]
  IC50: < 10 nM
[2]
  IC50: 10 to 100 nM

## CC(=O)Nc1cc2nc(C(C)C)nn2c(-c2cnc(C)o2)n1 [Compound 47, N-[5-(2-methyl-1,3-oxazol-5-yl)-2-propan-2-yl-[1,2,4]triazolo[1,5-c]pyrimidin-7-yl]acetamide]
[1]
  IC50: < 10 nM
[2]
  IC50: 10 to 100 nM

## Cc1cn2cc(NC(=O)C3CC3)nc(-c3ccco3)c2n1 [Compound 208, N-[8-(furan-2-yl)-2-methylimidazo[1,2-a]pyrazin-6-yl]cyclopropanecarboxamide]
[1]
  IC50: < 10 nM
[2]
  IC50: 10 to 100 nM

## Cc1nc2c3sc(=O)[nH]c3nc(-c3ccc(C)o3)n2n1 [Compound 27, 4-methyl-7-(5-methylfuran-2-yl)-12-thia-3,5,6,8,10-pentazatricyclo[7.3.0.0^2,6]dodeca-1(9),2,4,7-tetraen-l1-one]
[1]
  IC50: 10 to 100 nM
[2]
  IC50: 10 to 100 nM

## CC(=O)Nc1cc2nc(C)nn2c(-c2ccoc2)n1 [Compound 72, N-[5-(furan-3-yl)-2-methyl-[1,2,4]triazolo[1,5-c]pyrimidin-7-yl]acetamide]
[1]
  IC50: 100 to 1000 nM
[2]
  IC50: > 1000 nM
